One data set has as its system Huh-7 hepatoma cell line. The data set can be described thus: MTT cell viability assay, Huh-7. The conditions noted are these: Homo sapiens, read-out: EC50 on cell viability, Huh-7 (Liver). The format is cell-based. The procedure: (§1) Cell-based assays were performed using the described cell lines, grown in the appropriate Growth Mediums containing 10% fetal bovine serum and 1% penicillin-streptomycin. Cancer cells were plated at 15,000 cells/well in 96-well plates and allowed to attach overnight. […] Cell viability was determined after 72 hours incubation periods. To determine anti-proliferative effects of inhibitors, cellular proliferation was determined using the colorimetric MTT cell viability assay kit, as described by the manufacture (ATCC).
A general note: Tetrazolium dyes change colour on reduction, which living cells bring about.

A further data set addresses b-Raf (V600E) (Homo sapiens (Human), UniProt P15056, V600E). Nature of the data set: In vitro kinase inhibition assay (ADP-Glo), b-Raf (V600E). The format is biochemical. The procedure:
(§2) All measurements included background and control (vehicle only) luminescence readings.
(§3) The kinases Raf-1 and b-Raf (V600E), and their corresponding substrate, MEK1, and Full length recombinant CRAF kinase and its respective substrate, recombinant MEK1, were purchased from US Biological (Swampscott, Mass.). All assays were performed under identical conditions for the Raf isozymes: 10 nM Enzyme, 1 μM MEK1, 10 μM ATP, at 22° C. for 2 hours. […] IC50 values were obtained by determining the change in the ADP production (luminescence signal) at various inhibitor concentrations as compared to the control assay. Individual data sets were performed in duplicate and each IC50 was determined by the average and standard deviation of three separate experiments.

Data set [1] relates to SKBR3 breast cancer cell line. Nature of the data set: MTT cell viability assay, SKBR3. In kind it is cell-based. The conditions noted are these: Homo sapiens, read-out: EC50 on cell viability, SKBR3 (Breast). The procedure: (§4) Cell-based assays were performed using the described cell lines, grown in the appropriate Growth Mediums containing 10% fetal bovine serum and 1% penicillin-streptomycin. Cancer cells were plated at 15,000 cells/well in 96-well plates and allowed to attach overnight. Inhibitors were dissolved in DMSO and then diluted to concentrations ranging from 0.1-25 μM with a final DMSO concentration of 0.1%. Cell viability was determined after 72 hours incubation periods. To determine anti-proliferative effects of inhibitors, cellular proliferation was determined using the colorimetric MTT cell viability assay kit, as described by the manufacture (ATCC).

The test system of data set [2] is PC-3 prostate cancer cell line. The data set can be described thus: MTT cell viability assay, PC-3. The conditions noted are these: read-out: EC50 on cell viability, PC-3 (Prostate). The format is cell-based. How it is done:
as §4

Data set [3] deals with ACHN renal cell carcinoma cell line. Nature of the data set: MTT cell viability assay, ACHN. The conditions noted are these: Homo sapiens, read-out: EC50 on cell viability, ACHN (Kidney). The format is cell-based. How it is done: as §1
In another data set the test system is HepG2 hepatoma cell line. Nature of the data set: MTT cell viability assay, HepG2. In kind it is cell-based. The conditions noted are these: for EC50: Homo sapiens, read-out: EC50 on cell viability, HepG2 (Liver). The procedure:
as §1

The next data set deals with Raf-1 (Homo sapiens (Human), UniProt P04049). Nature of the data set: In vitro kinase inhibition assay (ADP-Glo), Raf-1. In kind it is biochemical. The procedure:
as §2, §3
Full length recombinant CRAF kinase and its respective substrate, recombinant MEK1, were purchased from US Biological (Swampscott, Mass.). All assays were performed at 10 nM CRAF, 1 μM MEK1, 10 μM ATP, at 22° C. for 2 hours. […] IC50 values were obtained by determining the change in the ADP production (luminescent signal) at various inhibitor concentrations as compared to the control assay. Individual data sets were performed in duplicate and each IC50 was determined by the mean and standard deviation of three separate experiments.

Data set [4] relates to T47D breast cancer cell line. Nature of the data set: MTT cell viability assay, T47D. In kind it is cell-based. Particulars: Homo sapiens, 72 hours incubation. How it is done: as §4
Data set [5] can be described thus: Pharmacokinetics after cassette oral administration to mice. The conditions noted are these: male, Swiss Webster, mouse, in vivo, 1 mg/kg. How it is done: Male Swiss Webster mice (10-week old, 30-35 g) were used for PK studies. […] Each blood sample was immediately transferred to a tube containing 50 μL of water containing 0.1% EDTA. After being mixed strongly on a Vortex for 1 min, all samples were stored at −80° C. until analysis. The extraction of sEHIs from blood was performed by a slight modification of a previous method. […] Torrance, Calif.) held at 50° C. […] The injection volume was 10 μL and the samples were kept at 4° C. in the auto sampler. Analytes were detected by negative mode electrospray ionizations tandem quadrupole trap mass spectrometry in multiple reaction-monitoring mode (MRM) on a Trap 4000 Mass Spectrometer (ABI, Milford, Mass.). The parameters of MS condition were the same as presented previously.

In the next data set the target is human sEH (Homo sapiens (Human), UniProt P34913). The data set can be described thus: Inhibitory activity against human sEH. The format is biochemical. The conditions noted are these: read-out: Human sEH IC50.
Sequence of human sEH (P34913 whole entry): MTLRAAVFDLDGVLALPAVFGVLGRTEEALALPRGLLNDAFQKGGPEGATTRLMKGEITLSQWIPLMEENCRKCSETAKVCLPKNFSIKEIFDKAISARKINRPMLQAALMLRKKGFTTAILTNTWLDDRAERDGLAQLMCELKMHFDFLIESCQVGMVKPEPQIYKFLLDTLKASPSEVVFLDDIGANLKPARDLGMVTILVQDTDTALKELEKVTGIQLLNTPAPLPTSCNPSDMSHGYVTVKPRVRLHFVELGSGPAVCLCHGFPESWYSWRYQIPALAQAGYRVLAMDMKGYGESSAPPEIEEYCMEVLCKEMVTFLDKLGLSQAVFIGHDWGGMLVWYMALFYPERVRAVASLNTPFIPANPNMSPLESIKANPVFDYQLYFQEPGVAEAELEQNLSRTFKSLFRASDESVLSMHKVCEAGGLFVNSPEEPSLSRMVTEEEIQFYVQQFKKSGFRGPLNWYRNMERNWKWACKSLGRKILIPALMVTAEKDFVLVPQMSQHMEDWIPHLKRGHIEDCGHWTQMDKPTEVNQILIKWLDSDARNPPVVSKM
Where [6] appears, read: Huh-7, MTT, 72 hours incubation.
The mark [7] stands for this setting: SK-BR-3, MTT, 72 hours incubation.
Setting [8] is: HepG2, MTT, 72 hours incubation.

Read-outs that look alike come from different tables or passages of the source.

By EC50 is commonly meant the concentration needed to bring the measured effect to its halfway point. For orientation: IC50 means the midpoint of a concentration-inhibition curve. The term AUC(0-t) denotes exposure summed from dosing to a finite time, without extrapolation to infinity. A lower AUC(0-t) goes with less exposure. For orientation: Cmax means the highest concentration seen after dosing. By Tmax is commonly meant the time at which the peak concentration occurs.

Sequence of Raf-1 (P04049 whole entry): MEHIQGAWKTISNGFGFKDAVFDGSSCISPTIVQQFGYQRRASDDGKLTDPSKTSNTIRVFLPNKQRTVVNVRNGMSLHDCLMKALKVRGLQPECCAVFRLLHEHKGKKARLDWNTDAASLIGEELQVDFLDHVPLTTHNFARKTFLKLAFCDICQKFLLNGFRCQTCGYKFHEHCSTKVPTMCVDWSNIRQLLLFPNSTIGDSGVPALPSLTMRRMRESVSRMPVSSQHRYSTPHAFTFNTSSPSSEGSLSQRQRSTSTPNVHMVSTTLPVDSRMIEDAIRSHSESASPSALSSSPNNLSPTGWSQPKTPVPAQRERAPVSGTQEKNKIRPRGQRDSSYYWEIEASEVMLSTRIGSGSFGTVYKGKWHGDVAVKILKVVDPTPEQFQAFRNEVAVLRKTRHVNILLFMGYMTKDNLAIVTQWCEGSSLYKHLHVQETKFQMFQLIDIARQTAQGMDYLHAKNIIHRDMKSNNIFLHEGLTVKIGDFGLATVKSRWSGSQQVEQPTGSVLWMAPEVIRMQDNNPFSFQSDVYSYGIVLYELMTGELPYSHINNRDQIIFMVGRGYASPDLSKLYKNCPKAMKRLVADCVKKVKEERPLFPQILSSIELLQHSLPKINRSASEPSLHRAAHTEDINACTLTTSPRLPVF
Sequence of b-Raf (V600E) (P15056 whole entry V600E): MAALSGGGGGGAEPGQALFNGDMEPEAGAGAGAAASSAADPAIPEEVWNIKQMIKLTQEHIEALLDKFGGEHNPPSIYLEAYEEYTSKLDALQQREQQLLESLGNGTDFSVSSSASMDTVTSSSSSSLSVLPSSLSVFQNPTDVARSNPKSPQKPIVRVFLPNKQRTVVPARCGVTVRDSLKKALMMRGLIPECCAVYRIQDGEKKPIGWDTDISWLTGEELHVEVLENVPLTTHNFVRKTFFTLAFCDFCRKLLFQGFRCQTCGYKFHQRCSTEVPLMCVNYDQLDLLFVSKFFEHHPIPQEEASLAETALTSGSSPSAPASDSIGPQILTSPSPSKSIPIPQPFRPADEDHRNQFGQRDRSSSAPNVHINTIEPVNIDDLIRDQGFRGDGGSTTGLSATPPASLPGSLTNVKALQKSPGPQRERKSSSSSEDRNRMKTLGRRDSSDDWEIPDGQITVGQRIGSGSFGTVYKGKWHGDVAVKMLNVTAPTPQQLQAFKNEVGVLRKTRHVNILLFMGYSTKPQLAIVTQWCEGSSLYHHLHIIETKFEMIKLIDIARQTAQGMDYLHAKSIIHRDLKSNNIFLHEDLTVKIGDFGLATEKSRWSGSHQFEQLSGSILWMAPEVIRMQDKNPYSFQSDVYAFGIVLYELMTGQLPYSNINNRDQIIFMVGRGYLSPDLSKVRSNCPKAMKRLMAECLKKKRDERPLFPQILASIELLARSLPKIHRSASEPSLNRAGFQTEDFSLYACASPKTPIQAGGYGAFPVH

As for `CNC(=O)c1ccc(O[C@H]2CC[C@H](NC(=O)Nc3ccc(OC(F)(F)F)cc3)CC2)cc1` [Compound 2227, trans-N-Methyl-4-{4-[3-(4-trifluoromethoxy-phenyl)-ureido]-cyclohexyloxy}-benzamide], the EC50 in the data set on Huh-7 hepatoma cell line (Huh-7, 72 h) is 5.5 µM; in data set [1] (SK-BR-3, 72 h), over 25 µM; in data set [2] (72 h) it was 10 µM; in data set [3] (72 h), 6.5 µM; in the data set on HepG2 hepatoma cell line (HepG2, 72 h), 7 µM; in [4], over 25 µM. The IC50 against b-Raf (V600E) is over 10 µM; against Raf-1, 0.34 ± 0.04 µM.
Consider `CNC(=O)c1cc(Oc2ccc(NC(=O)Nc3ccc(Cl)c(C(F)(F)F)c3)cc2)ccn1` [Sorafenib, reference compound], for which the EC50 in the data set with Huh-7 hepatoma cell line (Huh-7, 72 h) came to 4.2 µM; in data set [1] (SK-BR-3, 72 h), 6.5 µM; in data set [2] (72 h), 5.5 µM; in data set [3] (72 h) it was 4 µM; in [4] it was 3 µM.
With `CNC(=O)c1cc(O[C@H]2CC[C@H](NC(=O)Nc3ccc(Cl)c(C(F)(F)F)c3)CC2)ccn1` [Compound 2278, trans-4-{4-[3-(4-chloro-3-trifluoromethyl-phenyl)-ureido]-cyclohexyloxy}-pyridine-2-carboxylic acid methylamide], the EC50 in the data set on Huh-7 hepatoma cell line (setting [6]) is 8 µM; in data set [1] (setting [7]) it was 8 µM; in [2] (MTT, 72 hours incubation) it was 7 µM; in data set [3] (MTT, 72 hours incubation), 7.5 µM; in the data set on HepG2 hepatoma cell line (setting [8]), 7 µM; in data set [4], 5 µM. The AUC(0-t) in data set [5] came to 3 µM·h. The peak level in data set [5] (Cmax) was 190 nM. In data set [5], the Tmax was found to be 1.7 h. The “Effect on Hep G2 cell viability (dose dependence)” value in the data set on HepG2 hepatoma cell line (FIG. 2) and in the data set with HepG2 hepatoma cell line (FIG. 4) was “more efficient than sunitinib” throughout. Moreover, the “Effect on Hep G2 cell viability (comparison of inhibitors)” value in the data set on HepG2 hepatoma cell line (FIG. 3, at a concentration 2-fold smaller) is “more efficient than sunitinib”. Besides, the IC50 at human sEH came out at 0.0005 µM.
Regarding `CNC(=O)c1ccc(O[C@H]2CC[C@H](NC(=O)NC34CC5CC(CC(C5)C3)C4)CC2)cc1` [Compound 2225, trans-4-[4-(3-adamantan-1-yl-ureido]-cyclohexyloxy)-N-methyl-benzamide], the EC50 with Huh-7 hepatoma cell line (setting [6]) turned out to be 7 µM; in data set [1] (setting [7]), 7.5 µM; in data set [2] (MTT, 72 hours incubation), 2 µM; in [3] (MTT, 72 hours incubation), 4.5 µM; in the data set with HepG2 hepatoma cell line (setting [8]) it was 6 µM; in [4], 4.5 µM. Besides, the IC50 was over 10 µM at Raf-1 (10 nM enzyme, 1 μM MEK1, 10 μM ATP, 22° C., 2 hours, read-out: Raf-1 IC50) and 0.0005 µM on human sEH.

(Values after patent publication US9029401B2 (The Regents of the University of California, priority 2011, dated 2015).)
